Reference: PubChem BioAssay AID1918930 (Molecular Pharmacology Branch, DTP, NCI, 2023)
Where “and” joins values, the source holds several entries; their conditions need not be identical. Equal entries are not always repeated.

Tested on: 233499-124-R-J3-PDC complex spheroid viability, % test/control
Experiment: Anticancer human tumor 233499-124-R-J3-PDC patient-derived colon adenocarcinoma cell line growth inhibition
Conditions: for viability, T/C: stronger effect = lower value
Outline: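 Complex spheroids of tumor cells with HUVEC and human MSCs, exposed to iadademstat combined with other agents. Each agent tested in half-log steps from near clinical Cmax (else 10 microM top), DMSO ≤0.25%.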

[1] = curve of first compound, second compound 0.1 µM
[2] = curve of first compound, second compound 0.316 µM
[3] = curve of first compound, second compound 1 µM
[4] = curve of first compound, second compound 3.16 µM
[5] = curve of first compound, second compound 10 µM
[6] = second compound 0.1 µM, first compound 0.0316 µM
[7] = second compound 0.1 µM, first compound 0.1 µM
[8] = second compound 0.1 µM, first compound 0.316 µM
[9] = second compound 0.1 µM, first compound 1 µM
[10] = second compound 0.316 µM, first compound 0.0316 µM
[11] = second compound 0.316 µM, first compound 0.1 µM
[12] = second compound 0.316 µM, first compound 0.316 µM
[13] = second compound 0.316 µM, first compound 1 µM
[14] = second compound 1 µM, first compound 0.0316 µM
[15] = second compound 1 µM, first compound 0.1 µM
[16] = second compound 1 µM, first compound 0.316 µM
[17] = second compound 1 µM, first compound 1 µM
[18] = second compound 3.16 µM, first compound 0.0316 µM
[19] = second compound 3.16 µM, first compound 0.1 µM
[20] = second compound 3.16 µM, first compound 0.316 µM
[21] = second compound 3.16 µM, first compound 1 µM
[22] = second compound 10 µM, first compound 0.0316 µM
[23] = second compound 10 µM, first compound 0.1 µM
[24] = second compound 10 µM, first compound 0.316 µM
[25] = second compound 10 µM, first compound 1 µM
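Also: spheroids exposed to agents for one week before readout.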

SMILES: CC1COCCN1c1cc(-c2ccnn2C)c2ccnc(-c3ccn[nH]3)c2n1 (configuration not stated) + NC1CC1c1ccc(-c2cccc(O)c2)cc1
- IC50 [1]: > 1000 nM
- IC50 [2]: > 1000 nM
- IC50 [3]: > 1000 nM
- IC50 [4]: < 3.16 nM
- IC50 [5]: < 3.16 nM
- viability, T/C (second compound 0.1 µM, first compound 0.00316 µM): 60.7%
- viability, T/C (second compound 0.1 µM, first compound 0.01 µM): 63.2%
- viability, T/C [6]: 36.7%
- viability, T/C [7]: 39.4%
- viability, T/C [8]: 56.4%
- viability, T/C [9]: 102%
- viability, T/C (second compound 0.316 µM, first compound 0.00316 µM): 62.7%
- viability, T/C (second compound 0.316 µM, first compound 0.01 µM): 75.6%
- viability, T/C [10]: 38.9%
- viability, T/C [11]: 36.6%
- viability, T/C [12]: 43.7%
- viability, T/C [13]: 87.3%
- viability, T/C (second compound 1 µM, first compound 0.00316 µM): 64.1%
- viability, T/C (second compound 1 µM, first compound 0.01 µM): 59.6%
- viability, T/C [14]: 37.4%
- viability, T/C [15]: 40.1%
- viability, T/C [16]: 39.1%
- viability, T/C [17]: 81.8%
- viability, T/C (second compound 3.16 µM, first compound 0.00316 µM): 60.5%
- viability, T/C (second compound 3.16 µM, first compound 0.01 µM): 50.9%
- viability, T/C [18]: 39.5%
- viability, T/C [19]: 42.7%
- viability, T/C [20]: 44.2%
- viability, T/C [21]: 82.1%
- viability, T/C (second compound 10 µM, first compound 0.00316 µM): 53.4%
- viability, T/C (second compound 10 µM, first compound 0.01 µM): 42.1%
- viability, T/C [22]: 32.7%
- viability, T/C [23]: 36.2%
- viability, T/C [24]: 32.9%
- viability, T/C [25]: 76.5%

SMILES: CCN(c1cc(-c2ccc(CN3CCOCC3)cc2)cc(C(=O)NCc2c(C)cc(C)[nH]c2=O)c1C)C1CCOCC1
- viability, T/C (compound 0.00949 µM): 81.1% and 101%
- viability, T/C (compound 0.03 µM): 86.2% and 103%
- viability, T/C (compound 0.0949 µM): 101% and 96%
- viability, T/C (compound 0.3 µM): 103% and 97.8%
- viability, T/C (compound 0.949 µM): 110% and 83.4%
- viability, T/C (compound 3 µM): 99.1% and 52.7%
- IC50 (curve of compound): > 3000 nM

SMILES: O=C(c1cc(Cc2n[nH]c(=O)c3ccccc23)ccc1F)N1CCN(C(=O)C2CC2)CC1 + NC1CC1c1ccc(-c2cccc(O)c2)cc1
- IC50 [1]: > 10000 nM
- IC50 [2]: > 10000 nM
- IC50 [3]: > 10000 nM
- IC50 [4]: > 10000 nM
- IC50 [5]: > 10000 nM
- viability, T/C [6]: 96.9%
- viability, T/C [7]: 92.2%
- viability, T/C [8]: 98.5%
- viability, T/C [9]: 97.8%
- viability, T/C (second compound 0.1 µM, first compound 3.16 µM): 100%
- viability, T/C (second compound 0.1 µM, first compound 10 µM): 73.2%
- viability, T/C [10]: 94.2%
- viability, T/C [11]: 106%
- viability, T/C [12]: 106%
- viability, T/C [13]: 87.2%
- viability, T/C (second compound 0.316 µM, first compound 3.16 µM): 91.1%
- viability, T/C (second compound 0.316 µM, first compound 10 µM): 79.3%
- viability, T/C [14]: 78.3%
- viability, T/C [15]: 91.6%
- viability, T/C [16]: 91.6%
- viability, T/C [17]: 79%
- viability, T/C (second compound 1 µM, first compound 3.16 µM): 73.4%
- viability, T/C (second compound 1 µM, first compound 10 µM): 68.5%
- viability, T/C [18]: 87.6%
- viability, T/C [19]: 83.4%
- viability, T/C [20]: 71.6%
- viability, T/C [21]: 84.6%
- viability, T/C (second compound 3.16 µM, first compound 3.16 µM): 66.5%
- viability, T/C (second compound 3.16 µM, first compound 10 µM): 63%
- viability, T/C [22]: 77.6%
- viability, T/C [23]: 75.1%
- viability, T/C [24]: 71.9%
- viability, T/C [25]: 68%
- viability, T/C (second compound 10 µM, first compound 3.16 µM): 58.6%
- viability, T/C (second compound 10 µM, first compound 10 µM): 62.7%

SMILES: Nc1ncn(C2CC(O)C(CO)S2)c(=O)n1 (configuration not stated) + NC1CCC(NC2CC2c2ccccc2)CC1
- IC50 [1]: 123 nM
- IC50 [2]: 76.1 nM
- IC50 [3]: 56.9 nM
- IC50 [4]: 73.9 nM
- IC50 [5]: 63.2 nM
- viability, T/C (second compound 0.1 µM, first compound 0.000949 µM): 110%
- viability, T/C (second compound 0.1 µM, first compound 0.003 µM): 85.6%
- viability, T/C (second compound 0.1 µM, first compound 0.00949 µM): 113%
- viability, T/C (second compound 0.1 µM, first compound 0.03 µM): 88.1%
- viability, T/C (second compound 0.1 µM, first compound 0.0949 µM): 61.4%
- viability, T/C (second compound 0.1 µM, first compound 0.3 µM): 13.1%
- viability, T/C (second compound 0.316 µM, first compound 0.000949 µM): 113%
- viability, T/C (second compound 0.316 µM, first compound 0.003 µM): 107%
- viability, T/C (second compound 0.316 µM, first compound 0.00949 µM): 117%
- viability, T/C (second compound 0.316 µM, first compound 0.03 µM): 93.9%
- viability, T/C (second compound 0.316 µM, first compound 0.0949 µM): 39.7%
- viability, T/C (second compound 0.316 µM, first compound 0.3 µM): 11.6%
- viability, T/C (second compound 1 µM, first compound 0.000949 µM): 94.3%
- viability, T/C (second compound 1 µM, first compound 0.003 µM): 88.6%
- viability, T/C (second compound 1 µM, first compound 0.00949 µM): 91.2%
- viability, T/C (second compound 1 µM, first compound 0.03 µM): 76.8%
- viability, T/C (second compound 1 µM, first compound 0.0949 µM): 28.6%
- viability, T/C (second compound 1 µM, first compound 0.3 µM): 27.4%
- viability, T/C (second compound 3.16 µM, first compound 0.000949 µM): 97.4%
- viability, T/C (second compound 3.16 µM, first compound 0.003 µM): 99.9%
- viability, T/C (second compound 3.16 µM, first compound 0.00949 µM): 92%
- viability, T/C (second compound 3.16 µM, first compound 0.03 µM): 89%
- viability, T/C (second compound 3.16 µM, first compound 0.0949 µM): 39.2%
- viability, T/C (second compound 3.16 µM, first compound 0.3 µM): 24.9%
- viability, T/C (second compound 10 µM, first compound 0.000949 µM): 86.6%
- viability, T/C (second compound 10 µM, first compound 0.003 µM): 82.4%
- viability, T/C (second compound 10 µM, first compound 0.00949 µM): 86.8%
- viability, T/C (second compound 10 µM, first compound 0.03 µM): 82.8%
- viability, T/C (second compound 10 µM, first compound 0.0949 µM): 32.1%
- viability, T/C (second compound 10 µM, first compound 0.3 µM): 23.6%
